Reference: patent publication US8148424B2, “Tocopherols, tocotrienols, other chroman and side chain derivatives and uses thereof” (Research Development Foundation, priority 1998, dated 2012)
≈ marks a conversion by molar mass, not a printed value. Values belong to the compound of their own block, whether it stands above or below them.

Tests used:
MCF-7 = assay: Bioassay for apoptosis (apoptotic EC50); format: cell-based, human; settings: for EC50: Homo sapiens, MCF7, MCF-7, unit inferred; for apoptotic EC50: MCF-7, unit not given, in µg/mL
Procedure: (§1) Cells were cultured at 1.5×10^5 cells/well in 12 well plates. Cells were allowed to adhere overnight, then incubated with novel test compounds at 0.01, 0.1, 1, 5, 10 & 20 μg/mL for 1, 2 and 3 days. After treatment, cells (floating+trypsin released adherent cells) were pelleted, washed and stained with 2 μg/ml DAPI (4′,6-diamidine-2′-phenylindole dihydrochloride) in 100% methanol for 15 minutes at 37° C. and/or 3′-OH ends resulting from DNA fragmentation were detected with the TUNEL (terminal deoxynucleotidyl transferase-mediated dUTP-X 3′ nick end-labeling) technique, and then viewed using a Zeiss ICM 405 microscope. Cells whose nucleus contained clearly condensed or fragmented chromatin or stained for fragmented DNA in the TUNEL assay were scored as apoptotic. Data are presented as percent cells undergoing apoptosis.

LnCaP = assay: Bioassay for apoptosis (apoptotic EC50); format: cell-based, human; settings: for EC50: Homo sapiens, unit inferred; for apoptotic EC50: unit not given, in µg/mL
Procedure: as §1

[1] = system: human cancer cells from a wide variety of cell lineages; assay: Apoptosis induction in a battery of tumor cells; format: cell-based; settings: breast, prostate, leukemia/lymphoid, cervical, ovarian, endometrial, colon, lung cell lines
Procedure: as §1

HL-60 = assay: Bioassay for apoptosis (apoptotic EC50); format: cell-based, human; settings: for apoptotic EC50: HL-60, unit not given, in µg/mL
Procedure: as §1

MDA-MB-435 = assay: Bioassay for apoptosis (apoptotic EC50); format: cell-based, human; settings: for apoptotic EC50: MDA-MB-435, unit not given; for EC50: Homo sapiens, MDA-MB-435, MDA-MB-435, unit inferred, read-out: apoptotic EC50
Procedure: as §1

ME-180 = assay: Bioassay for apoptosis (apoptotic EC50); format: cell-based, human; settings: for apoptotic EC50: ME-180, unit not given, in µg/mL; for EC50: Homo sapiens, ME-180, ME-180, unit inferred
Procedure: as §1

C-170 = assay: Bioassay for apoptosis (apoptotic EC50); format: cell-based, human; settings: for apoptotic EC50: C-170, unit not given, in µg/mL; for EC50: Homo sapiens, C170, C-170, unit inferred
Procedure: as §1

PC-3 = assay: Bioassay for apoptosis (apoptotic EC50); format: cell-based, human; settings: PC-3; unit not given; in µg/mL
Procedure: as §1

RL-95-2 = assay: Bioassay for apoptosis (apoptotic EC50); format: cell-based, human; settings: for EC50: Homo sapiens, RL95-2, RL-95-2, unit inferred
Procedure: as §1

MDA-MB-231 = assay: Bioassay for apoptosis (apoptotic EC50); format: cell-based, human; settings: for apoptotic EC50: MDA-MB-231, unit not given, in µg/mL; for EC50: Homo sapiens, MDA-MB-231, MDA-MB-231, unit inferred
Procedure: as §1

[2] = system: HT-29 Human Colon Cancer Cells Transplanted into Nude Mice; assay: Preclinical chemotherapeutic xenograft study; format: in vivo; settings: for Mean tumor Weights (mg) Following Treatments / Percent mean tumor weight gain (mg) following treatments: positive control 30 mg/kg daily for 5 days
Procedure: (§2) For the preclinical chemotherapeutic studies, in the absence of an maximum tolerated dose, the mice are supplemented with 30 and 20 mgs/0.1 ml by gavage daily for 21 days. Compound 1 is dissolved in 100% ethanol at 2 grams of compound 1/5 mls of ethanol, and diluted in peanut oil (nonsupplemented vitamin E) to yield 30 and 20 mgs of compound 1 per 0.1 ml. Vehicle control consisted of a mixture of ethanol and peanut oil equivalents. The preclinical chemotherapeutic studies are conducted with compound 1, utilizing human MDA-MB-435 human breast cancer cells, human DU-145 prostate cancer cells, and human HT-20 colon tumor cells transplanted into Balb/c immune compromised nude mice.
(§3) A total of 40 immune compromised nude mice are utilized for testing each test compound (two treatment groups at 20 and 30 mg/day) in each tumor cell type. […] Tumor cells are transplanted subcutaneously into the left flank and permitted to grow to approximately 70 mg in size, test compound treatments by daily gavage are initiated, and continue for a total of 21 days. Mice are monitored daily for tumor size by caliper measurements. Mice are treated for 21 days; however, the mice are sacrificed when the tumors of the vehicle control reached 500 mg in weight. At the completion of the protocol, tumors are excised and tumor size established by weight. At the time of sacrifice, serum, tumor, and heart muscle are taken from animals in the two compound 1 test groups in order to establish levels of compound 1 via HPLC analyses (data not included). The chemotherapeutic effectiveness of compound 1 administered daily at 30 and 20 mgs/day is determined by comparing the tumor size of the two treatment groups with the vehicle control group for each of the three tumor types, and by comparing the size of the tumor in the two treatment groups with the tumor group from the positive control. Treatment is for 21 days, experiments are continued until mean weight of tumor for vehicle control reaches 500 mgs.

[3] = system: DU-145 Human Prostate Cancer Cells Transplanted into Nude Mice; assay: Preclinical chemotherapeutic xenograft study; format: in vivo; settings: for Mean tumor Weights (mg) Following Treatments / Percent mean tumor weight gain (mg) following treatments: positive control 1 mg/kg i.v. daily for 5 days
Procedure: as §2, §3

MCF-10A = assay: Bioassay for apoptosis (apoptotic EC50); format: cell-based; settings: Homo sapiens, unit inferred
Procedure: as §1

HMEC = assay: Bioassay for apoptosis (apoptotic EC50); format: cell-based; settings: Homo sapiens, unit inferred
Procedure: as §1

[4] = system: MDA-MB-435 Human Breast Cancer Cells Transplanted into Nude Mice; assay: Preclinical chemotherapeutic xenograft study; format: in vivo; settings: for Percent mean tumor weight gain (mg) following treatments / Mean tumor Weights (mg) Following Treatments: positive control 20 mg/kg i.p. daily for 5 days
Procedure: as §2, §3

Compound: O=c1[nH]cc(F)c(=O)[nH]1 [Compound 5-FU, 5 Fluorouracil, reference compound]
Mean tumor Weights (mg) Following Treatments ([2]; day 1): 59.3 mg | Percent mean tumor weight gain (mg) following treatments ([2]; day 1): 100% | Mean tumor Weights (mg) Following Treatments ([2]; day 5): 87.5 mg | Percent mean tumor weight gain (mg) following treatments ([2]; day 5): 147.6% | Mean tumor Weights (mg) Following Treatments ([2]; day 8): 105.8 mg | Percent mean tumor weight gain (mg) following treatments ([2]; day 8): 178.4% | Mean tumor Weights (mg) Following Treatments ([2]; day 12): 145.8 mg | Percent mean tumor weight gain (mg) following treatments ([2]; day 12): 245.9% | Mean tumor Weights (mg) Following Treatments ([2]; day 15): 141.6 mg | Percent mean tumor weight gain (mg) following treatments ([2]; day 15): 247.2% | Mean tumor Weights (mg) Following Treatments ([2]; day 19): 212.3 mg | Percent mean tumor weight gain (mg) following treatments ([2]; day 19): 358.0% | Mean tumor Weights (mg) Following Treatments ([2]; day 22): 255.5 mg | Percent mean tumor weight gain (mg) following treatments ([2]; day 22): 430.0% | reduction of mean tumor growth vs vehicle control ([2]; positive control, 30 mg/kg daily for 5 days): 31.4%

Compound: O=C1c2c(O)ccc(O)c2C(=O)c2c(NCCNCCO)ccc(NCCNCCO)c21 [Mitoxantrone, reference compound]
Mean tumor Weights (mg) Following Treatments ([3]; day 1): 66.8 mg | Percent mean tumor weight gain (mg) following treatments ([3]; day 1): 100% | Mean tumor Weights (mg) Following Treatments ([3]; day 5): 107.2 mg | Percent mean tumor weight gain (mg) following treatments ([3]; day 5): 160.5% | Mean tumor Weights (mg) Following Treatments ([3]; day 8): 141.1 mg | Percent mean tumor weight gain (mg) following treatments ([3]; day 8): 211.2% | Mean tumor Weights (mg) Following Treatments ([3]; day 12): 185.4 mg | Percent mean tumor weight gain (mg) following treatments ([3]; day 12): 277.5% | Mean tumor Weights (mg) Following Treatments ([3]; day 15): 205.2 mg | Percent mean tumor weight gain (mg) following treatments ([3]; day 15): 307.2% | Mean tumor Weights (mg) Following Treatments ([3]; day 19): 325.3 mg | Percent mean tumor weight gain (mg) following treatments ([3]; day 19): 487.0% | Mean tumor Weights (mg) Following Treatments ([3]; day 22): 389.4 mg | Percent mean tumor weight gain (mg) following treatments ([3]; day 22): 582.9% | reduction of mean tumor growth vs vehicle control ([3]; positive control, 1 mg/kg daily intravenously for 5 days): 27.9%

Compound: Cc1c(C)c2c(c(C)c1OCC(=O)O)CCC(C)(CCCC(C)CCCC(C)CCCC(C)C)O2 (racemic) [Compound 15, 2,5,7,8-tetramethyl-(2RS-(4RS,8RS,12-trimethyltridcyl)chroman-6-yloxy)acetic acid]
EC50 (MDA-MB-435): 20 to 30 µg/mL (≈ 40.9 to 61.4 µM) | EC50 (ME-180): > 20 µg/mL | EC50 (C-170): > 20 µg/mL | EC50 (MCF-7): 20 to 30 µg/mL (≈ 40.9 to 61.4 µM) | EC50 (RL-95-2): > 20 µg/mL | EC50 (MDA-MB-231): 20 to 30 µg/mL (≈ 40.9 to 61.4 µM) | growth inhibitory (apoptotic inducing) properties specific for human cancer cells [1]: effective

Compound: CC(=O)O[C@H]1C(=O)[C@@]2(C)[C@H]([C@H](OC(=O)c3ccccc3)[C@]3(O)C[C@H](OC(=O)[C@H](O)[C@@H](NC(=O)c4ccccc4)c4ccccc4)C(C)=C1C3(C)C)[C@]1(OC(C)=O)CO[C@@H]1C[C@@H]2O [Taxol, reference compound]
Percent mean tumor weight gain (mg) following treatments ([4]; day 1): 100% | Percent mean tumor weight gain (mg) following treatments ([4]; day 4): 101.1% | Mean tumor Weights (mg) Following Treatments ([4]; day 7): 38.2 mg | Percent mean tumor weight gain (mg) following treatments ([4]; day 7): −46.0% | Mean tumor Weights (mg) Following Treatments ([4]; day 10): 11.7 mg | Percent mean tumor weight gain (mg) following treatments ([4]; day 10): −83.7% | Mean tumor Weights (mg) Following Treatments ([4]; day 14): 5.7 mg | Percent mean tumor weight gain (mg) following treatments ([4]; day 14): −91.8% | Mean tumor Weights (mg) Following Treatments ([4]; day 17): 3.6 mg | Percent mean tumor weight gain (mg) following treatments ([4]; day 17): −99.5% | Mean tumor Weights (mg) Following Treatments ([4]; day 21): 6.8 mg | Percent mean tumor weight gain (mg) following treatments ([4]; day 21): −90.3% | reduction of mean tumor growth vs vehicle control ([4]; positive control, 20 mg/kg intraperitoneally daily for 5 days): 90.3%

Compound: Cc1c(C)c2c(c(C)c1OCCC(=O)O)CC[C@@](C)(CCC[C@H](C)CCC[C@H](C)CCCC(C)C)O2 [Compound 2, 2,5,7,8-tetramethyl-(2R-(4R,8R,12-trimethyltridecyl)chroman-6-yloxy) propionic acid]
apoptotic EC50 (HL-60): 10-20 | apoptotic EC50 (MDA-MB-435; in µg/mL): 10-20 | apoptotic EC50 (ME-180): 5-10 | apoptotic EC50 (C-170): 10-20 | apoptotic EC50 (PC-3): 5-10 | apoptotic EC50 (MCF-7): 20-30 | apoptotic EC50 (LnCaP): 5-10 | apoptotic EC50 (MDA-MB-231): 10-20 | growth inhibitory (apoptotic inducing) properties specific for human cancer cells [1]: effective

Second part, led by results:

EC50 (MCF-7): 10 to 20 µg/mL (≈ 19.8 to 39.6 µM) | EC50 (LnCaP): 10 to 20 µg/mL (≈ 19.8 to 39.6 µM)
Compound: C/C(=C\CSc1cc(C)c(OCC(=O)O)c(C)c1C)CCCC(C)CCCC(C)CCCC(C)C (stereo not drawn) [Compound 27, E.Z,RS,RS,RS-(phytyltrimethylbenzenethiol-6-yloxy)acetic acid]
growth inhibitory (apoptotic inducing) properties specific for human cancer cells [1]: effective

apoptotic EC50 (HL-60): 10-20 | apoptotic EC50 (MDA-MB-435; in µg/mL): 5-10 | apoptotic EC50 (ME-180): 10-20 | apoptotic EC50 (C-170): 10-20 | apoptotic EC50 (PC-3): 5-10 | apoptotic EC50 (MCF-7): 20-30 | apoptotic EC50 (RL-95-2; RL-95-2, unit not given, in µg/mL): 10-20 | apoptotic EC50 (LnCaP): 5-10 | apoptotic EC50 (MDA-MB-231): 5-10
Compound: Cc1c(C)c2c(c(C)c1OCCCC(=O)O)CC[C@@](C)(CCC[C@H](C)CCC[C@H](C)CCCC(C)C)O2 [Compound 3, 2,5,7,8-tetramethyl-(2R-(4R,8R,12-trimethyltridecyl)chroman-6-yloxy) butyric acid]
growth inhibitory (apoptotic inducing) properties specific for human cancer cells [1]: effective

apoptotic EC50 (MDA-MB-435): PPT
Compound: Cc1c(C)c2c(c(C)c1N=Nc1ccc([N+](=O)[O-])cc1[N+](=O)[O-])CCC(C)(CCCC(C)CCCC(C)CCCC(C)C)N2 (stereo not drawn) [Compound 43]

EC50 (MDA-MB-435): > 20 µg/mL | EC50 (MCF-7): > 20 µg/mL | EC50 (MDA-MB-231): > 20 µg/mL
Compound: Cc1c(C)c2c(c(C)c1OCC(=O)O)CC[C@](C)(C(=O)O)O2 [Compound 16]

apoptotic EC50 (MDA-MB-435; in µg/mL): 10-20
Compound: Cc1c(C)c(OCC(=O)O)c(C)c2c1NC(C)(CCCC(C)CCCC(C)CCCC(C)C)CC2 (stereo not drawn) [Compound 39, 1-Aza-α-tocopherol-6-yloxyl-acetic acid]
growth inhibitory (apoptotic inducing) properties specific for human cancer cells [1]: effective

EC50 (HMEC): > 20 µg/mL | EC50 (HL-60; Homo sapiens, HL-60, HL-60, unit inferred): > 20 µg/mL | EC50 (MDA-MB-435): > 20 µg/mL | EC50 (ME-180): > 20 µg/mL | EC50 (C-170): > 20 µg/mL | EC50 (MCF-7): > 20 µg/mL | EC50 (RL-95-2): > 20 µg/mL | EC50 (LnCaP): > 20 µg/mL | EC50 (MDA-MB-231): > 20 µg/mL
Compound: Cc1c(C)c2c(c(C)c1OCC(N)=O)CC[C@@](C)(CCC[C@H](C)CCC[C@H](C)CCCC(C)C)O2 [Compound 10, 2,5,7,8-tetramethyl-(2R-(4R,8R,12-trimethyltridecyl)chroman-6-yloxy)acetamide]
EC50 (MCF-10A): > 20 µg/mL

apoptotic EC50 (ME-180): 1-5
Compound: 2-(2,5,7,8-tetramethyl-(2R-(4R,8,12-trimethyltridecyl)chroman-6-yloxy)triethylammonium sulfate [Compound 21]
growth inhibitory (apoptotic inducing) properties specific for human cancer cells [1]: effective
